In patent US20200048183A1, “ANTIMICROBIAL AGENTS” (THE UNIVERSITY OF WARWICK, priority 2017, published 2020):
In brackets after ≈: the same amount, converted by molar mass.

test system: multi-drug resistant A. baumannii strains; assay: Minimum inhibitory concentration (MIC), broth microdilution method according to CLSI guidelines; type: cell-based, Acinetobacter baumannii; conditions: Acinetobacter baumannii, 18 h, read-out: MIC against A. baumannii
Experimental: MIC values for the compounds were determined using the broth microdilution method according to the official CLSI guidelines. Acinetobacter baumannii test strains were grown overnight in Mueller-Hinton (MH) broth at 37° C. In a 96-well microtiter plate, 50 μl of serial two-fold dilutions of an enacyloxin derivative in MH broth were mixed with 50 μl of bacterial suspension, diluted to a concentration of 10^6 CFU/ml in MH broth. The desired inoculum density was achieved using a 0.5 McFarland turbidity standard.

Row | Compound | MIC
1 | CC/C=C/[C@@H](OC(N)=O)[C@@H](Cl)[C@H](O)CC(O)[C@@H](O)[C@H](O)[C@H](C)/C(Cl)=C/C=C/C=C(C)/C=C/C=C/C(=O)O[C@@H]1C[C@@H](C(=O)O)CC[C@@H]1O (stereo in doubt) [Compound 8, 15-hydroxy-enacyloxin IIa] | 8 µg/mL (≈ 11.4 µM)
2 | CC/C=C/[C@@H](O)[C@@H](Cl)[C@H](O)CC(O)[C@@H](O)[C@H](O)[C@H](C)/C(Br)=C/C=C/C=C(C)/C=C/C=C/C(=O)O[C@@H]1C[C@@H](C(=O)O)CC[C@@H]1O (stereo partly drawn) [Compound 34] | 2 µg/mL (≈ 2.83 µM)
3 | CC/C=C/[C@@H](OC(N)=O)[C@@H](Cl)[C@H](O)CC(=O)[C@@H](O)[C@H](O)[C@H](C)/C(Cl)=C/C=C/C=C(C)/C=C/C=C/C(=O)O[C@@H]1C[C@@H](C(=O)O)C[C@@H](O)[C@@H]1O [Compound 4, 5′-hydroxy-enacyloxin IIa] | 16 µg/mL (≈ 22.3 µM)
4 | CC/C=C/[C@@H](OC(N)=O)[C@@H](Cl)[C@H](O)CC(=O)[C@@H](O)[C@H](O)[C@H](C)/C(Cl)=C/C=C/C=C(C)/C=C/C=C/C(=O)NCC(O)CC(=O)O (stereo partly drawn) [Compound 23, enacyloxin-4-amino-3-hydroxybutyric acid conjugate] | 64 µg/mL (≈ 96.7 µM)
5 | CC/C=C/C(=O)C[C@H](O)CC(=O)[C@@H](O)[C@H](O)[C@H](C)/C(Cl)=C/C=C/C=C(C)/C=C/C=C/C(=O)O[C@@H]1C[C@@H](C(=O)O)CC[C@@H]1O [Compound 10, 18-dechloro-decarbamoyl-enacyloxin IIa] | 32 µg/mL (≈ 51.4 µM)

same assay, conditions: Acinetobacter baumannii; multi-drug resistant A. baumannii strains; broth microdilution in MH broth, 18 h at 37° C.; read-out: MIC against A. baumannii

Row | Compound | MIC
6 | CC/C=C/[C@@H](O)[C@@H](Br)[C@H](O)CC(O)[C@@H](O)[C@H](O)[C@H](C)/C(Br)=C/C=C/C=C(C)/C=C/C=C/C(=O)O[C@@H]1C[C@@H](C(=O)O)CC[C@@H]1O (stereo partly drawn) [Compound 33] | 1 µg/mL (≈ 1.33 µM)
7 | CC/C=C/[C@@H](OC(N)=O)[C@@H](Cl)[C@H](O)CC(=O)[C@@H](O)[C@H](O)[C@H](C)/C(Cl)=C/C=C/C=C(C)/C=C/C=C/C(=O)O[C@@H]1CC(C(=O)O)=CC[C@@H]1O [Compound 28, Δ5912-14 unsaturated enacyloxin analogue] | 0.5 µg/mL (≈ 0.714 µM)
8 | CC/C=C/C1OC(O)(C[C@H](O)[C@H](C)/C(Cl)=C/C=C/C=C(C)/C=C/C=C/C(=O)O[C@@H]2C[C@@H](C(=O)O)CC[C@@H]2O)CC(O)C1Cl (stereo partly drawn) [Compound 5, 14-dehydroxy-18-decarbamoyl-enacyloxin IIa] | 8 µg/mL (≈ 12.4 µM)
9 | CC/C=C/[C@@H](OC(N)=O)[C@@H](Cl)[C@H](O)CC(=O)[C@@H](O)[C@H](O)[C@H](C)/C(Cl)=C/C=C/C=C(C)/C=C/C=C/C(=O)O[C@H]1CCC[C@H](C(=O)O)C1 [Compound 22] | 4 µg/mL (≈ 5.83 µM)
10 | CC/C=C/[C@@H](OC(N)=O)[C@@H](Cl)[C@H](O)CC(=O)[C@@H](O)[C@H](O)[C@H](C)/C(Cl)=C/C=C/C=C(C)/C=C/C=C/C(=O)O[C@@H]1C[C@H](C(=O)O)CC[C@H]1O [Compound 17] | 2 µg/mL (≈ 2.85 µM)
11 | CC/C=C/[C@@H](O)[C@@H](Cl)[C@H](O)CC(O)[C@@H](O)[C@H](O)[C@H](C)/C(Cl)=C/C=C/C=C(C)/C=C/C=C/C(=O)O[C@@H]1C[C@@H](C(=O)O)CC[C@@H]1O (stereo in doubt) [Compound 9, 15-hydroxy-decarbamoyl enacyloxin IIa] | 1 µg/mL (≈ 1.51 µM)
12 | CC/C=C/[C@H](C[C@H](O)CC(=O)[C@@H](O)[C@H](O)[C@H](C)/C(Br)=C/C=C/C=C(C)/C=C/C=C/C(=O)O[C@@H]1C[C@@H](C(=O)O)CC[C@@H]1O)OC(N)=O [Compound 32] | 16 µg/mL (≈ 22.5 µM)
13 | CC/C=C/[C@@H](OC(N)=O)[C@@H](Cl)[C@H](O)CC(=O)[C@@H](O)[C@H](O)[C@H](C)/C(Br)=C/C=C/C=C(C)/C=C/C=C/C(=O)O[C@@H]1C[C@@H](C(=O)O)CC[C@@H]1O [Compound 31] | 2 µg/mL (≈ 2.68 µM)
14 | CC/C=C/[C@@H](OC(N)=O)[C@@H](Cl)[C@H](O)CC(=O)C[C@H](O)[C@H](C)/C(Cl)=C/C=C/C=C(C)/C=C/C=C/C(=O)O[C@@H]1C[C@@H](C(=O)O)CC[C@@H]1O [Compound 1, 14-dehydroxy-enacyloxin IIa] | 2 µg/mL (≈ 2.91 µM)
15 | CC/C=C/C1OC(O)([C@@H](O)[C@H](O)[C@H](C)/C(Cl)=C/C=C/C=C(C)/C=C/C=C/C(=O)O[C@@H]2C[C@@H](C(=O)O)CC[C@@H]2O)CC(O)C1Cl (stereo partly drawn) [Compound 3, decarbamoyl-enacyloxin IIa] | 4 µg/mL (≈ 6.06 µM)
16 | CC/C=C/[C@@H](O)C[C@H](O)CC(O)C[C@H](O)[C@H](C)/C=C/C=C/C=C(C)/C=C/C=C/C(=O)O[C@@H]1C[C@@H](C(=O)O)CC[C@@H]1O (stereo partly drawn) [Compound 12] | > 64 µg/mL
17 | CC/C=C/[C@@H](O)C[C@H](O)CC(O)[C@@H](O)[C@H](O)[C@H](C)/C(Br)=C/C=C/C=C(C)/C=C/C=C/C(=O)O[C@@H]1C[C@@H](C(=O)O)CC[C@@H]1O (stereo partly drawn) [Compound 35] | 32 µg/mL (≈ 47.6 µM)
18 | CC/C=C/[C@H](C[C@H](O)CC(=O)C[C@H](O)[C@H](C)/C(Cl)=C/C=C/C=C(C)/C=C/C=C/C(=O)O[C@@H]1C[C@@H](C(=O)O)CC[C@@H]1O)OC(N)=O [Compound 6, 14-dehydroxy-18-dechloro-enacyloxin IIa] | 8 µg/mL (≈ 12.3 µM)
19 | CC/C=C/[C@@H](O)[C@@H](Cl)[C@H](O)C[C@@H](O)[C@@H](O)[C@H](O)[C@H](C)/C(Cl)=C/C=C/C=C(C)/C=C/C=C/C(=O)O[C@@H]1CC(C(=O)O)=CC[C@@H]1O [Compound 29, Δ5930/32/12-14 unsaturated enacyloxin analogue] | 1 µg/mL (≈ 1.52 µM)
20 | CC/C=C/[C@@H](OC(N)=O)[C@@H](Cl)[C@H](O)CC(=O)[C@@H](O)[C@H](O)[C@H](C)/C(Cl)=C/C=C/C=C(C)/C=C/C=C/C(=O)N[C@H]1CCC[C@H](C(=O)O)C1 [Compound 21] | 8 µg/mL (≈ 11.7 µM)
21 | CC/C=C/[C@@H](OC(N)=O)[C@@H](Cl)[C@H](O)CC(=O)[C@@H](O)[C@H](O)[C@H](C)/C=C/C=C/C=C(C)/C=C/C=C/C(=O)O[C@@H]1C[C@@H](C(=O)O)CC[C@@H]1O [Compound 7, 11-dechloro-enacyloxin IIa] | 4 µg/mL (≈ 5.99 µM)
22 | CC/C=C/[C@@H](OC(N)=O)[C@@H](Br)[C@H](O)CC(=O)[C@@H](O)[C@H](O)[C@H](C)/C(Br)=C/C=C/C=C(C)/C=C/C=C/C(=O)O[C@@H]1C[C@@H](C(=O)O)CC[C@@H]1O [Compound 30] | 1 µg/mL (≈ 1.26 µM)
23 | CC/C=C/[C@@H](O)C[C@H](O)CC(O)[C@@H](O)[C@H](O)[C@H](C)/C(Cl)=C/C=C/C=C(C)/C=C/C=C/C(=O)O[C@@H]1C[C@@H](C(=O)O)CC[C@@H]1O (stereo partly drawn) [Compound 11] | 8 µg/mL (≈ 12.8 µM)

same assay, conditions: multi-drug resistant A. baumannii strains; broth microdilution in MH broth, 18 h at 37° C.

Row | Compound | MIC against A. baumannii
24 | 18-dechloro-enacyloxin IIa [Compound 2] | 4 µg/mL
